Source: the supplement of paper PMC8671470
± gives the standard deviation of the averaged measurements.

Assays:
HL-60 [1] = experiment: area under dose-response curve (viability, 1 nM-10 uM) (fraction (0-1)); higher = more sensitive; settings: 72 h
Outline: (§1)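 Four-parameter log-logistic fits in drc and PharmacoGx supplied area under the curve where it is given. Underlying viability came from CellTiter-Glo, normalised to DMSO and proteasome-inhibitor wells, with the proteasome inhibitor at 10 μM. HL-60 cells in RPMI 1640 plus 10% FBS had been rescreened against the full library at five tenfold concentrations of 1–10,000 nM, in duplicate on 384-well plates, with DMSO or 100 nM of one of three metabolic inhibitors, for 72 h at 37 °C, 5% CO2.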

HL-60 [2] = experiment: cell viability (% survival relative to DMSO control); higher = less cytotoxic; settings: 72 h
Outline: as §1

[3] = co-treatment: GSK2194069 100 nM
[4] = co-treatment: pictilisib 100 nM
[5] = 0.001 µM, co-treatment: AZD3965 100 nM
[6] = 0.001 µM, co-treatment: DMSO vehicle
[7] = 0.001 µM, co-treatment: GSK2194069 100 nM
[8] = 0.001 µM, co-treatment: pictilisib 100 nM
[9] = 0.01 µM, co-treatment: AZD3965 100 nM
[10] = 0.01 µM, co-treatment: DMSO vehicle
[11] = 0.01 µM, co-treatment: GSK2194069 100 nM
[12] = 0.01 µM, co-treatment: pictilisib 100 nM
[13] = 0.1 µM, co-treatment: AZD3965 100 nM
[14] = 0.1 µM, co-treatment: DMSO vehicle
[15] = 0.1 µM, co-treatment: GSK2194069 100 nM
[16] = 0.1 µM, co-treatment: pictilisib 100 nM
[17] = 1 µM, co-treatment: AZD3965 100 nM
[18] = 1 µM, co-treatment: DMSO vehicle
[19] = 1 µM, co-treatment: GSK2194069 100 nM
[20] = 1 µM, co-treatment: pictilisib 100 nM
[21] = 10 µM, co-treatment: AZD3965 100 nM
[22] = 10 µM, co-treatment: DMSO vehicle
[23] = 10 µM, co-treatment: GSK2194069 100 nM
[24] = 10 µM, co-treatment: pictilisib 100 nM

SMILES	area under dose-response curve (HL-60 [1]; co-treatment: AZD3965 100 nM)	area under dose-response curve (HL-60 [1]; co-treatment: DMSO vehicle)	area under dose-response curve (HL-60 [1]; [3])	area under dose-response curve (HL-60 [1]; [4])	cell viability (HL-60 [2]; [5]) [%]	cell viability (HL-60 [2]; [6]) [%]	cell viability (HL-60 [2]; [7]) [%]	cell viability (HL-60 [2]; [8]) [%]	cell viability (HL-60 [2]; [9]) [%]	cell viability (HL-60 [2]; [10]) [%]	cell viability (HL-60 [2]; [11]) [%]	cell viability (HL-60 [2]; [12]) [%]	cell viability (HL-60 [2]; [13]) [%]	cell viability (HL-60 [2]; [14]) [%]	cell viability (HL-60 [2]; [15]) [%]	cell viability (HL-60 [2]; [16]) [%]	cell viability (HL-60 [2]; [17]) [%]	cell viability (HL-60 [2]; [18]) [%]	cell viability (HL-60 [2]; [19]) [%]	cell viability (HL-60 [2]; [20]) [%]	cell viability (HL-60 [2]; [21]) [%]	cell viability (HL-60 [2]; [22]) [%]	cell viability (HL-60 [2]; [23]) [%]	cell viability (HL-60 [2]; [24]) [%]
Cc1cccc(Nc2cc(Cl)nc(SCC(=O)O)n2)c1C [Pirinixic acid]	< 0.0301	< 0.0301	< 0.0301	< 0.0301	98.81 ± 0.56	97.46 ± 0.45	70.6 ± 36	96.5 ± 14	99 ± 2	94.5 ± 4.6	89.6 ± 7.2	80.8 ± 28	96.2 ± 2.9	96.3 ± 2.2	94.6 ± 6.5	91.1 ± 6	99.2 ± 2.7	100.4 ± 0.83	99.1 ± 5.2	102 ± 3.8	98.02 ± 0.94	96.4 ± 0.97	77.3 ± 27	96.7 ± 5.6
CCn1c(=Cc2cccc[n+]2CC)sc(=C2Sc3ccccc3N2C)c1=O [MKT 077]	< 0.0301	< 0.0301	–	< 0.0301	95.2 ± 2.8	102 ± 4.8	92 ± 3	95.6 ± 3.1	102 ± 3.6	105 ± 2.6	104 ± 8.8	113.3 ± 0.81	97.3 ± 6.6	97.35 ± 0.5	96 ± 2	99.2 ± 3.6	88.22 ± 0.49	100.14 ± 0.022	76.1 ± 3.7	93.3 ± 3.5	97.7 ± 8.2	106 ± 3.7	73.5 ± 28	110 ± 18
O=c1cc(-c2ccccc2)oc2c1ccc1ccccc12 [Alpha-Naphtoflavone]	< 0.0301	< 0.0301	< 0.0301	< 0.0301	103 ± 6.3	102 ± 1.3	98.2 ± 2.1	96.8 ± 1	99 ± 5.6	99.7 ± 3.6	101 ± 5.7	101.3 ± 0.75	102 ± 4	97.6 ± 4.9	110 ± 9.3	99.3 ± 2	100.7 ± 0.43	98.3 ± 3.9	99.9 ± 4.9	93 ± 4.5	101.2 ± 1	101 ± 1.2	98.3 ± 4.6	90 ± 3.6
C[C@H]1c2cccc(O)c2C(=O)C2C(=O)[C@]3(O)C(=O)C(C(N)=O)C(=O)[C@@H](N(C)C)[C@@H]3[C@@H](O)[C@@H]21 (stereo partly specified) [Doxycycline]	< 0.0301	< 0.0301	< 0.0301	< 0.0301	92.6 ± 9.1	100 ± 2.7	93.3 ± 7.2	91.7 ± 6.2	97.9 ± 4.6	101 ± 4.3	96 ± 4.9	98.48 ± 0.73	99.6 ± 4.2	104 ± 2	99.5 ± 5.7	99.2 ± 1.6	96.7 ± 8.5	102 ± 1.5	94.8 ± 6.5	102 ± 3.8	113 ± 5.6	114.8 ± 0.59	108.3 ± 0.83	96.9 ± 6.5
CCCCCOC(=O)Nc1nc(=O)n([C@@H]2O[C@H](C)[C@@H](O)[C@H]2O)cc1F [Capecitabine]	< 0.0301	< 0.0301	< 0.0301	< 0.0301	103 ± 7.9	98.8 ± 8.1	103 ± 7	104 ± 3.5	95.72 ± 0.16	100.39 ± 0.085	95.88 ± 0.56	96.7 ± 12	109 ± 4.4	106 ± 3	99.36 ± 0.11	95.4 ± 13	102 ± 2.5	99.7 ± 1.6	102 ± 1.4	108 ± 4.2	96.6 ± 4.8	98.7 ± 3	95.6 ± 11	113 ± 11
O=c1c(-c2ccc(O)cc2)coc2cc(O[C@@H]3O[C@H](CO)[C@@H](O)[C@H](O)[C@H]3O)ccc12 [Daidzin]	< 0.0301	< 0.0301	< 0.0301	< 0.0301	94.4 ± 7.1	96.2 ± 3.1	96.5 ± 3.9	94 ± 11	104 ± 6.6	102 ± 5.1	105 ± 2.1	103 ± 11	102 ± 9.7	101.7 ± 0.79	102 ± 3.5	105 ± 3.9	84.8 ± 30	98.92 ± 0.91	98.7 ± 2.4	67.6 ± 43	107 ± 9.1	99.7 ± 1.7	101 ± 11	98.5 ± 12
CC(C)CC(=O)N[C@H](C(=O)N[C@H](C(=O)N[C@@H](CC(C)C)[C@@H](O)CC(=O)N[C@@H](C)C(=O)N[C@@H](CC(C)C)[C@@H](O)CC(=O)O)C(C)C)C(C)C [Pepstatin A]	< 0.0301	< 0.0301	< 0.0301	< 0.0301	104 ± 3.4	98.3 ± 3.8	100 ± 2.5	99.8 ± 4.1	107 ± 7.4	101 ± 1.7	108 ± 1.3	117 ± 15	103 ± 6	98.4 ± 2	103 ± 7.9	98.8 ± 10	102 ± 7.8	98.35 ± 0.18	103 ± 5.4	89.9 ± 7	102 ± 5.5	99.6 ± 6	99.9 ± 6.4	107 ± 9.8
CCCc1nc(C)c2c(=O)nc(-c3cc(S(=O)(=O)N4CCN(CC)CC4)ccc3OCC)[nH]n12 [Vardenafil]	–	–	–	–	98.1 ± 1.4	98.07 ± 0.13	97.9 ± 1.4	101 ± 3.4	100 ± 4.8	99.7 ± 5	98.3 ± 5.9	104 ± 1.9	96.8 ± 7.3	84.9 ± 20	88.3 ± 16	93 ± 2.5	108 ± 5.8	98.5 ± 4.3	108.1 ± 0.52	104 ± 7.8	100 ± 2.6	103 ± 3.1	92.4 ± 10	107 ± 5.3
COC(=O)c1cc2c(C(F)(F)F)cc(-c3ccccc3)cc2n1O [NHI-2]	< 0.0301	< 0.0301	< 0.0301	< 0.0301	101 ± 16	102 ± 3.1	103 ± 4.8	96.9 ± 18	90.5 ± 6	100 ± 4	94.829 ± 0.083	92.8 ± 10	103 ± 8.9	104 ± 1.4	100 ± 3.5	103 ± 3.6	107 ± 4.8	102 ± 3.6	107.3 ± 0.8	99.3 ± 8.1	109 ± 7.1	111 ± 6	98.4 ± 0.75	97.3 ± 13
Cc1c(Cl)cccc1S(=O)(=O)Nc1nc(CC(=O)N2CCN(C)CC2)cs1 [BVT-2733]	< 0.0301	< 0.0301	< 0.0301	< 0.0301	101.68 ± 0.086	101 ± 3	103.6 ± 0.74	96.1 ± 7.3	102 ± 3.8	103.3 ± 0.6	105 ± 6.3	99.8 ± 8.6	97.2 ± 1.6	98.9 ± 2	97 ± 2.4	96.6 ± 2.2	98.13 ± 0.69	98.1 ± 1.3	88.4 ± 7.7	87.2 ± 13	99.4 ± 1.7	98.8 ± 1.6	99.66 ± 0.36	97.9 ± 1.1
C=CC(=O)c1ccc(O)cc1 [4-Acryloylphenol]	< 0.0301	< 0.0301	< 0.0301	< 0.0301	104 ± 2.3	102 ± 3.4	104 ± 3.1	108 ± 2.5	99.2 ± 1.7	101.3 ± 0.4	110 ± 15	103 ± 8.7	88.2 ± 19	100 ± 5.9	96.21 ± 0.15	104 ± 3.7	99.4 ± 1.9	102 ± 5.9	105 ± 9.7	108 ± 23	63.5 ± 5.5	92.8 ± 3.6	87.5 ± 4.1	58.5 ± 22
OC[C@H]1O[C@@H](n2cnc3c2N=CNC[C@H]3O)C[C@@H]1O [Pentostatin]	< 0.0301	< 0.0301	< 0.0301	< 0.0301	97.8 ± 3.3	92.3 ± 12	86.6 ± 13	89.2 ± 4.1	105 ± 3.7	105 ± 7.4	101 ± 2.8	102 ± 3.8	100 ± 3.5	94.9 ± 6.3	98.8 ± 2.3	91.2 ± 1.8	102 ± 2.8	106 ± 2.7	101 ± 4.7	103 ± 7.5	100.2 ± 0.14	102 ± 2.5	93.96 ± 0.9	96.2 ± 1.8
CCCCCN(C)CCC(O)(P(=O)(O)O)P(=O)(O)O [Ibandronate]	< 0.0301	< 0.0301	< 0.0301	< 0.0301	101 ± 4	101 ± 3	98.3 ± 3.5	103 ± 12	90.6 ± 11	99.4 ± 3.6	98.1 ± 3.2	87.2 ± 3.4	108.2 ± 0.12	104 ± 2.7	104 ± 2.5	101 ± 3.7	94.15 ± 0.69	99.1 ± 3.3	94.4 ± 2.5	94.3 ± 2	99.33 ± 0.86	106 ± 1.4	99 ± 1.6	99.9 ± 3.8
N#Cc1ccc(N(Cc2ccc(Br)cc2)n2cnnc2)cc1 [YM511]	–	–	–	–	83.2 ± 8.3	96.8 ± 4	96.8 ± 2	88.1 ± 9.3	106 ± 6.3	102 ± 4.8	81 ± 33	79.9 ± 18	102 ± 2	101.39 ± 0.056	105 ± 5.9	99.6 ± 1.7	95.3 ± 5.1	101 ± 2.3	97.49 ± 0.82	92.9 ± 4.6	96.88 ± 0.89	104 ± 4.4	102 ± 2.3	95.3 ± 5.3
CCOC(=O)c1sc(NC(=O)c2ccco2)c(SC#N)c1C [CBR-5884]	< 0.0301	< 0.0301	< 0.0301	< 0.0301	107.6 ± 1	104 ± 1.5	97.6 ± 3.5	107 ± 3.1	103 ± 1.6	102 ± 2.5	98.31 ± 0.17	101 ± 3.1	93.2 ± 23	98.9 ± 5.8	90.6 ± 12	81.8 ± 26	106 ± 3.2	105 ± 2.1	98.2 ± 3.5	101 ± 11	102 ± 6.6	100.8 ± 0.41	103 ± 3.9	88 ± 4.2
